Laboratory results: patent US20250288683A1, “TETRAHYDROISOQUINOLINE HETEROBIFUNCTIONAL BCL-XL DEGRADERS” (Treeline Biosciences, Inc., priority 2022, published 2025)

target: T1, Human BCL-XL protein (N-terminal HiBiT tagged BCL-XL in HT1080 cells) (Homo sapiens, UniProt Q07817); test: HiBiT based degradation assay; format: cell-based; conditions: HT1080 cells expressing N-terminal HiBiT tagged BCL-XL, 24 h, normalized with DMSO control
T1 construct: expressed in transfected cells; host or cells: HT-1080 (ATCC CCL-121), stably transduced with lentivirus pLV-UBC-N-HiBiT-BCL-XL-PGK-puro and selected with puromycin
T1 sequence (Q07817 whole entry): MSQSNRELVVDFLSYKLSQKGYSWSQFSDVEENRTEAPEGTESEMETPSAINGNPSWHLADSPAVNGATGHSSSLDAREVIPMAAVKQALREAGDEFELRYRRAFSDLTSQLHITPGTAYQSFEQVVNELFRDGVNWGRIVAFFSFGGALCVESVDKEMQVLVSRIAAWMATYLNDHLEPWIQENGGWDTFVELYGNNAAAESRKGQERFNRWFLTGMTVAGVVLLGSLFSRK

| Structure (SMILES) | Ymin (24 h) |
| --- | --- |
| Cc1ncsc1-c1ccc([C@H](C)NC(=O)[C@@H]2C[C@@H](O)CN2C(=O)[C@@H](n2cc(CCCCCOc3cccc(-c4ccc(N5CCc6cccc(C(=O)Nc7nc8ccccc8s7)c6C5)nc4C(=O)O)c3C)nn2)C(C)(C)C)cc1 [Compound 126a, 6-[8-(1,3-benzothiazol-2-ylcarbamoyl)-3,4-dihydro-1H-isoquinolin-2-yl]-3-[3-[5-[1-[(1S)-1-[(2S,4R)-4-hydroxy-2-[[(1S)-1-[4-(4-methylthiazol-5-yl)phenyl]ethyl]carbamoyl]pyrrolidine-1-carbonyl]-2,2-dimethyl-propyl]triazol-4-yl]pentoxy]-2-methyl-phenyl]pyridine-2-carboxylic acid] | A (Ymin < 50%) |
| Cc1ncsc1-c1ccc([C@H](C)NC(=O)[C@@H]2C[C@@H](O)CN2C(=O)[C@@H](NC(=O)[C@@H](C)CCc2ccc(Oc3cccc(-c4ccc(N5CCc6cccc(C(=O)Nc7nc8ccccc8s7)c6C5)nc4C(=O)O)c3C)cc2)C(C)(C)C)cc1 (single isomer, unassigned) [Compound 143b] | A (Ymin < 50%) |
| Cc1ncsc1-c1ccc(CNC(=O)[C@@H]2C[C@@H](O)CN2C(=O)[C@@H](NC(=O)C2(F)CC2)C(C)(C)SCCCCCCCOc2cccc(-c3ccc(N4CCc5cccc(C(=O)Nc6nc7ccccc7s6)c5C4)nc3C(=O)O)c2C)cc1 [Compound 140a] | B (50% ≤ Ymin < 70%) |
